According to patent US11220661B2, “Compositions comprising taurate surfactants and methods of using the compositions” (Colgate-Palmolive Company, priority 2016, dated 2022):

Key:
[1] = tested on: proinflammatory cytokines IL-1a, IL-6, IL-8, TNF-a in 3D EpiDerm skin models; assay: Multiple inflammation biomarker assay on SDS-irritated 3D EpiDerm skin models; details: for cytokine levels (IL-1a, IL-6, IL-8, TNF-a; FIGS. 2A-2D, % control): 0.02 wt. % SDS-irritated skin samples, 30 ul of 1% test solution in PBS topically for 1 hour, then 24 hours incubation, Milliplex assay
Method: To document the effect on skin inflammation, in vitro experiments using 3D EpiDerm skin models (SIT 200 skin irritation model, MatTek Corporation, Ashland, Mass.) were conducted. An irritant chemical, sodium dodecyl sulfate (0.02 wt. % SDS), was used to induce skin irritation in in vitro skin samples. After the inducement of skin irritation, the in vitro skin samples were each treated topically with one of two 30 ul test solutions (either a 1% Taurine in PBS solution or a 1% Sodium methyl oleoyl taurate in PBS solution) for 1 hour in a tissue culture incubator (37 degree C., 5% CO2). Following the incubation, the skin samples were washed with PBS and placed in a culture medium and further incubated for 24 hours. Tissue was harvested and homogenized for a multiple inflammation biomarker assay, testing levels of IL-1, IL-6, IL-8 and TNF-a. Biomarkers were analyzed by a Milliplex assay kit. (Millipore, Billerica, Mass.).
The irritant chemical, sodium dodecyl sulfate (SDS), that was used is commonly used as a […] control in irritation/inflammation assays on MatTek tissue. The multiple biomarker assay of Example 2 measured the levels of proinflammatory cytokines, including IL-1a, IL-6, IL-8, TNF-a, in one assay to evaluate the level of skin irritation/inflammation. The more cytokines released, the greater the irritation and/or inflammation potential.

HaCaT cells = assay: Cell migration assay (scratch gap closure); assay type: cell-based, human; details: 0.01% by weight in DMEM culture medium, 24 hours, vs control medium
Method: Three different culture medium samples were prepared. A control medium that included a Dulbecco's modified Eagle's medium (DMEM) comprising actives of 10% Fetal Bovine Serum and 1% Penicillin Streptomycin; a taurine medium that was the same as the control medium but included 0.01% by weight Taurine; and a taurate medium that was the same as the control medium but included 0.01% by weight Sodium Methyl Oleoyl Taurate. To determine the effect of both Taurine (0.01%) and Sodium Methyl Oleoyl Taurate (0.01%) on the cellular repair function, in vitro experiments were conducted using HaCaT cells. HaCaT cells are a spontaneously transformed aneuploid immortal keratinocyte cell line from adult human skin. Three sample wells of the HaCaT cells were each grown until 100% confluent. After that, each well was scratched with a 1000 microliter (ul) tip (to create the gap) and washed twice with 1 milliliter (ml) of phosphate buffered saline (“PBS”) to eliminate dead floating cells. Following that, each one of the three sample wells were treated with 1 ml of one of the three culture medium samples: one with the control medium, one with the taurine (0.01%) medium, and one with the sodium methyl oleoyl taurate (0.01%) medium. Then, initial measurements of gap distance were taken using a microscope (OLYMPUS IX71). […]

[2] = tested on: IL-1a in 3D EpiDerm skin models; assay: Irritation biomarker (IL-1a) assay on 3D EpiDerm skin models; assay type: cell-based, human; details: 6.8% in combar base, p-value of 0.03 vs combar base
Text: Two separate combar samples were formulated, one with taurine and one with sodium methyl oleoyl taurate. Both the taurine and sodium methyl oleoyl taurate were formulated at the same molar concentration in the combar samples. The weight concentrations of taurine and methyl oleoyl taurate in their respective combar bases was as follows:
Taurine combar sample—2% Taurine (obtained from Qianjiang Yongan Pharmaceutical, Wuhan, China), 98% Combar;
Taurate combar sample—6.8% Sodium Methyl Oleoyl Taurate (obtained from Rhodia Solvay Group), 93.2% Combar.
Samples for testing were made by mixing the taurine combar and taurate combar in PBS (1% weight by volume combar base of each of the taurine combar and sodium methyl oleoyl taurate combar in PBS).
Separate In vitro skin samples were treated topically with 30 ul each of the taurine combar and taurate combar test samples for 1 hour in a tissue culture incubator. […] Tissue was harvested and homogenized for a IL-1a assay. IL-1a levels were analyzed using a Human IL-1 alpha/IL-1F1 Quantikine ELISA kit available from R&D Systems, Minneapolis, Minn. Among cytokines released along the inflammation pathway, IL-1a is recognized as a prominent irritation biomarker. The more IL-1a that is released, the greater is the irritation potential.
Thus, the combar base was used as a negative control on the MatTek tissue.

Compound | cytokine levels (IL-1a, IL-6, IL-8, TNF-a; FIGS. 2A-2D, % control) [1] | cell migration rate (% reduction in gap distance, FIG. 1) (HaCaT cells) | irritation potential of the combar base [2] | expression of cytokines IL-1a, IL-6, IL-8 and TNF-a by the irritant ([1]; 0.02 wt. % SDS on 3D EpiDerm)
NCCS(=O)(=O)O [taurine, 2-aminoethylsulphonic acid] | suppressed | comparable enhancement in cell migration rate | – | –
CCCCCCCC/C=C\CCCCCCCC(=O)N(C)CCS(=O)(=O)[O-].[Na+] [sodium methyl oleoyl taurate] | suppressed | comparable enhancement in cell migration rate | significantly reduced | –
CCCCCCCCCCCCOS(=O)(=O)[O-].[Na+] [SDS, Sodium Dodecyl Sulfate] | – | – | – | induced
